Patent US7776858B2, “Methods of treatment of chronic pain using eszopiclone” (Sepracor Inc., priority 2004, dated 2010)

Experiments:
[1] = system: benzodiazepine receptor complex; conditions: cited from earlier work
mice [2] = assay: Antimuscarinic activity in vivo: mydriasis; conditions: maximum dose 100 mg/kg, p.o.
Protocol: (§1) Eszopiclone was evaluated for antimuscarinic activity in vivo.

conscious dogs = assay: Dose escalation safety study, cardiovascular and respiratory parameters after acute intravenous administration; conditions: acute intravenous, 3, 5 and 12 mg/kg
Protocol: To establish the safety of eszopiclone, a dose escalation study was carried out. Cardiovascular and respiratory parameters were evaluated in conscious dogs following acute intravenous administration of (R)-, (S)- or racemic zopiclone at three doses (3, 5 and 12 mg/kg).

mice [3] = assay: Antagonism of oxotremorine induced salivation; format: in vivo; conditions: doses up to 300 mg/kg, p.o.
Protocol: as §1

CN1CCN(C(=O)OC2c3nccnc3C(=O)N2c2ccc(Cl)cn2)CC1 (racemic) [racemic zopiclone, zopiclone]
binding to the benzodiazepine receptor complex [1]: binds to the benzodiazepine receptor complex | mydriasis (mice [2]): did not produce mydriasis | Blood gases and blood chemistries (pH, pCO2, pO2, hematocrit, and lactate) (conscious dogs): remained unaffected | cardiotoxicity by electrocardiogram (ECG) (conscious dogs): No evidence of cardiotoxicity | effect on blood pressure (conscious dogs): dose dependent, transient decreases | effect on heart rate (conscious dogs): compensatory increase | antagonism of oxotremorine induced salivation (mice [3]): neither (R)-, (S)-, nor racemic zopiclone significantly antagonized
